# According to PubChem BioAssay (NCI):
#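 How tested: cells in 96-well plates exposed to compound for 48 hours at five concentrations. GI50 is the concentration that inhibits growth by half. TGI is the concentration that stops growth completely.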
# Assays:
# Test in all cases: DTP human tumour cell line panel, 48 h
# ACHN renal = system: ACHN renal
# M14 melanoma = system: M14 melanoma
# OVCAR-4 ovarian = system: OVCAR-4 ovarian
# SF-295 CNS = system: SF-295 CNS
# SF-539 CNS = system: SF-539 CNS
# SK-MEL-2 melanoma = system: SK-MEL-2 melanoma
# SW-620 colon = system: SW-620 colon
# U251 CNS = system: U251 CNS
# PC-3 prostate = system: PC-3 prostate
# MDA-MB-435 = system: MDA-MB-435
SMILES,TGI (ACHN renal) [µM],TGI (M14 melanoma) [µM],TGI (OVCAR-4 ovarian) [µM],TGI (SF-295 CNS) [µM],TGI (SF-539 CNS) [µM],TGI (SK-MEL-2 melanoma) [µM],TGI (SW-620 colon) [µM],TGI (U251 CNS) [µM],GI50 (ACHN renal) [µM],GI50 (M14 melanoma) [µM],GI50 (OVCAR-4 ovarian) [µM],GI50 (PC-3 prostate) [µM],TGI (PC-3 prostate) [µM],GI50 (SF-295 CNS) [µM],GI50 (SF-539 CNS) [µM],GI50 (SW-620 colon) [µM],GI50 (U251 CNS) [µM],GI50 (SK-MEL-2 melanoma) [µM],GI50 (MDA-MB-435) [µM],TGI (MDA-MB-435) [µM]
CC(=O)O[C@H]1CC[C@@]2(C)C(=C/C(=N\[N+](=O)[O-])[C@H]3C4CCC([C@H](C)CCCC(C)C)[C@@]4(C)CCC32)C1 (stereo not given in full),> 100,> 100,> 100,> 100,> 100,> 100,> 100,–,–,–,–,–,–,–,–,–,–,–,–,–
COc1ccc(/C(C#N)=C(/N)SCc2ccccc2Cl)cc1,> 10,27.8,–,31.5,32.5,32.6,29.7,32.6,–,–,–,–,–,–,–,–,–,–,–,–
COC(=O)c1nc(N)nc(C(=O)OC)c1C(=O)c1ccccc1,> 100,> 100,–,> 100,> 100,> 100,> 100,> 100,–,–,–,–,–,–,–,–,–,–,–,–
O=c1[nH]nc(-c2ccccc2)c2c(-c3ccccc3)onc12,> 100,> 100,> 100,> 100,1.79,> 100,> 100,> 100,3.38,0.329,2.4,2.12,> 100,0.72,0.351,0.319,0.517,–,–,–
O=c1[nH]c2c(c3ccccc13)CCc1ccccc1-2,> 100,–,> 100,> 100,> 100,> 100,> 100,> 100,–,–,–,–,–,–,–,–,–,–,–,–
NC(=O)N/N=C(\CCC(=O)N(Cc1ccccc1)Cc1ccccc1)CC(=O)c1ccc(F)cc1,> 100,> 100,> 100,> 100,62.4,> 100,> 100,> 100,–,–,–,–,–,–,–,–,–,–,–,–
[O-][n+]1c2cc(CN3CCOCC3)c(CN3CCOCC3)cc2[n+]([O-])c2c(O)cccc21,26.3,13.2,9.81,2.16,2.82,12.1,7.16,7.09,–,–,–,–,–,–,–,–,–,–,–,–
Cc1cccc(N=C2NC(=O)C(CC(=O)Nc3ccccc3Cl)S2)c1 (stereo not given),> 100,> 100,> 100,> 100,> 100,> 100,> 100,–,–,–,–,–,–,–,–,–,–,–,–,–
COc1cc(/C=C\c2ccc(Cl)cc2)cc(OC)c1OC,> 100,22.7,> 100,0.218,0.564,16.3,> 100,> 100,–,–,–,–,–,–,–,–,–,–,–,–
COC(=O)C1C(/C=C/c2ccoc2)ON2CCC[C@@H]12 (stereo not given in full),> 100,> 100,> 100,> 100,> 100,> 100,> 100,> 100,–,–,–,–,–,–,–,–,–,–,–,–
O=C(NC1C=Nc2ccccc2NC1=O)c1ccccc1Cl (stereo not given),> 100,> 100,> 100,> 100,> 100,> 100,29,> 100,–,–,–,–,–,–,–,–,–,–,–,–
COc1ccc2c(c1)C=C1CSCC3=Cc4cc(OC)ccc4OC13O2,> 100,> 100,> 100,> 100,0.816,> 100,> 100,> 100,0.863,0.323,1.54,0.36,> 100,0.316,0.254,0.373,0.427,0.625,–,–
CCc1c2c(nc3ccc(OCc4ccc(B5OC(C)(C)C(C)(C)O5)cc4)cc13)-c1cc3c(c(=O)n1C2)COC(=O)[C@]3(O)CC,2.07,–,> 100,–,0.131,> 24.6,> 100,–,0.0278,0.0141,0.192,0.146,> 100,–,< 0.0109,0.0258,< 0.01,0.825,0.101,> 100
COc1ccc(/C=N\O[Si](C)(C)C(C)(C)C)cc1O[Si](C)(C)C(C)(C)C,33.3,36.3,46.3,30.9,37.9,31.5,36.9,36,–,–,–,–,–,–,–,–,–,–,–,–
Oc1ccc(O)c2c1C1(Cl)C(Cl)=C(Cl)C2(Cl)C1(Cl)Cl,21.3,12,> 100,7.2,18.7,–,16.7,20,4.43,3.03,8.32,3.14,16.4,1.67,4.38,4.89,5.76,–,1.7,4.86
OC1c2ccccc2C2C(O)c3ccccc3C12 (stereo not given),> 100,> 100,> 100,> 100,> 100,> 100,> 100,> 100,–,–,–,–,–,–,–,–,–,–,–,–
O=C1NN=C(c2ccc([N+](=O)[O-])cc2)C1n1nc(-c2ccccc2)c2ccccc2c1=O (stereo not given),> 100,> 100,> 100,> 100,> 100,> 100,> 100,> 100,–,–,–,–,–,–,–,–,–,–,–,–
NNC(=S)N/N=C(/C(=O)Nc1ccc([N+](=O)[O-])cc1)c1nc2ccc([N+](=O)[O-])cc2[nH]c1=O,> 100,> 100,> 100,> 100,> 100,> 100,> 100,> 100,–,–,–,–,–,–,–,–,–,–,–,–
O=C1NN=CN2C(=O)CCC12 (stereo not given),> 100,> 100,> 100,> 100,> 100,> 100,> 100,> 100,–,–,–,–,–,–,–,–,–,–,–,–
O=C(CC(=O)C1CCOC1=O)C(=O)Nc1ccc(Cl)cc1 (stereo not given),> 100,> 100,> 100,> 100,> 100,> 100,> 100,> 100,–,–,–,–,–,–,–,–,–,–,–,–
COc1ccc(CN=C(N)N=C(N)N)cc1OC,> 1000,> 1000,> 1000,> 1000,> 1000,> 1000,> 1000,> 1000,> 1000,> 1000,215,–,–,194,> 1000,> 1000,398,859,> 1000,> 1000
